Laboratory results reported in patent publication US20100160351A1, “PHARMACEUTICAL COMPOSITIONS AND METHODS FOR TREATING HYPERURICEMIA AND RELATED DISORDERS” (NUON THERAPEUTICS, INC., priority 2008, published 2010).
Values joined by “and” are separate entries in the source; they are usually repeats but may differ in a detail not shown here. Equal entries are not always repeated.

Tested on: serum uric acid (sUA) levels
Assay: Study A3006GT: phase 2 crossover, sUA in healthy subjects with screening sUA of at least 7.1 mg/dL; tranilast, febuxostat, combination
Assay type: in vivo, human
Description: Study A3006GT was a phase 2, randomized, double-blind, 3-period, 3-treatment crossover trial. The primary objective was to compare the effects of three treatments on serum uric acid (sUA) levels in healthy subjects with a screening sUA level of at least 7.1 mg/dL. The three treatments were: 300 mg QD tranilast and 40 mg QD febuxostat (C); 300 mg QD tranilast alone (T); 40 mg QD febuxostat alone (F).
The study was conducted in 23 subjects. […] With two exceptions, every subject provided data for all three treatments. Subject 1001 completed only the first two periods of the study (C and F). […] Therefore, the period 3 data for subject 1024 are excluded from the analyses presented here.
Two endpoints were considered: change from baseline to day 7 in sUA; and percent change from baseline to day 7 in sUA. For each endpoint, an analysis of variance (ANOVA) model for a three-period crossover trial was used. The model included effects for sequence, subject within sequence, treatment, and period. The sequence effect was tested using the subject within sequence mean square as the error term. Two pairwise comparisons between treatments were tested: C−F and C−T. In addition, the two-sided 95% confidence interval for each of these differences was computed.
For each subject for which results were available from all three treatments, the difference between the change for C and the sum of the changes for F and T was computed. Although the true magnitude of the difference between these two values is not known, a conservative null hypothesis is that this difference should be equally likely to be greater than or less than zero. The sign test and the Wilcoxon signed rank test were used to test this null hypothesis.
Using the change for each subject as the dependent variable, an analysis of variance (ANOVA) model for a three-period crossover trial was fit. This model included effects for sequence, subject within sequence, treatment, and period. Using the least squares estimates of the mean changes for each treatment, along with the 3×3 covariance matrix of these three estimates, the mean and SD of the difference between C and F+T was estimated, as follows.

[1] = end of 1-week treatment (day 7), C: 300 mg QD tranilast + 40 mg QD febuxostat, T: 300 mg QD, F: 40 mg QD
[2] = individual subjects, per study period, end of the 1-week treatment period

COc1ccc(/C=C/C(=O)Nc2ccccc2C(=O)O)cc1OC [Tranilast, 2-[[3-(3,4-dimethoxyphenyl)-1-oxo-2-propenyl]amino]benzoic acid]
sUA Change from Baseline, Max [1]: -0.90 mg/dL | sUA Change from Baseline, Mean [1]: -1.60 mg/dL | sUA Change from Baseline, Median [1]: -1.40 mg/dL | sUA Change from Baseline, Min [1]: -3.50 mg/dL | sUA Percent Change from Baseline, Max [1]: −9.47% | sUA Percent Change from Baseline, Mean [1]: −21.20% | sUA Percent Change from Baseline, Median [1]: −18.61% | sUA Percent Change from Baseline, Min [1]: −47.95% | sUA Change from baseline [2]: −1.4 mg/dL (2×) and −1.1 mg/dL (3×) and −2.1 mg/dL and −2.2 mg/dL (2×) and −1.7 mg/dL (3×) and −1.9 mg/dL and −0.9 mg/dL (2×) and −1.2 mg/dL (3×) and −1.0 mg/dL (2×) and −3.2 mg/dL and −3.5 mg/dL and −1.6 mg/dL | sUA Percent Change from baseline [2]: −17.50% and −14.86% and −30.43% and −27.85% and −16.42% and −26.98% and −22.09% and −13.64% and −9.47% and −26.15% and −16.00% and −14.29% (2×) and −10.87% and −30.14% and −14.46% and −35.56% and −47.95% and −20.51% and −19.72% and −15.38% and −21.79%
